# From patent publication US20070128217A1 (priority 2003, published 2007)
# How the values were obtained:
# [1] = system: rabbit serum obtained by immunizing a rabbit with the SARS-CoV strain Frankfurt 1; assay type: binding; design: Binding of a rabbit serum to linear peptides / Binding of a rabbit serum to looped peptides / Rabbit serum linear peptides / Rabbit serum looped peptides / Binding of a rabbit serum to linear peptides of protein N of SARS-CoV Urbani (Rabbit serum linear peptides) / Binding of a rabbit serum to looped/cyclic peptides of protein N of SARS-CoV Urbani (Rabbit serum looped peptides): unit not given here
# [2] = system: antibodies in sera from SARS patients (sera 1a, 1b, 2, 6, 37, 62, London, SARS-yellow, SARS-green); assay type: binding, human; design: Binding of serum 6 to linear peptides of protein X1 of SARS-CoV Urbani / Binding of serum 37 to linear peptides of protein X1 of SARS-CoV Urbani / Binding of serum 6 to looped/cyclic peptide (PEPSCAN-ELISA) / Binding of serum 37 to looped/cyclic peptide (PEPSCAN-ELISA) / Binding of serum 37 to looped/cyclic peptides of protein X1 of SARS-CoV Urbani / Binding of serum 6 to linear peptides of protein X2 / Binding of serum 37 to linear peptides of protein X2 / Binding of serum 37 to looped/cyclic peptides of protein X2 of SARS-CoV Urbani / Binding of serum 6 to linear peptides of protein M of SARS-CoV Urbani / Binding of serum 37 to linear peptides of protein M of SARS-CoV Urbani / Binding of serum 6 to looped/cyclic peptides of protein M of SARS-CoV Urbani / Binding of serum 37 to looped/cyclic peptides of protein M of SARS-CoV Urbani / Binding of serum 6 to linear peptides of protein X3 of SARS-CoV Urbani / Binding of serum 37 to linear peptides of protein X3 of SARS-CoV Urbani / Binding of serum 37 to looped/cyclic peptides of protein X3 of SARS-CoV Urbani / Binding of serum 6 to linear peptides of protein X4 of SARS-CoV Urbani / Binding of serum 37 to linear peptides of protein X4 of SARS-CoV Urbani / Binding of serum 37 to looped/cyclic peptides of protein X4 of SARS-CoV Urbani / Binding of serum 6 to linear peptides of protein X5 of SARS-CoV Urbani / Binding of serum 37 to linear peptides of protein X5 of SARS-CoV Urbani / Binding of serum 37 to looped/cyclic peptides of protein X5 of SARS-CoV Urbani / Binding of serum 6 to linear peptides of protein N of SARS-CoV Urbani / Binding of serum 37 to linear peptides of protein N of SARS-CoV Urbani / Binding of serum 6 to linear peptide (PEPSCAN-ELISA) / Binding of serum 1a to looped/cyclic peptides of protein N of SARS-CoV Urbani / Binding of serum 1b to looped/cyclic peptides of protein N of SARS-CoV Urbani / Binding of serum 2 to looped/cyclic peptides of protein N of SARS-CoV Urbani / Binding of serum 6 to looped/cyclic peptides of protein N of SARS-CoV Urbani / Binding of serum 37 to looped/cyclic peptides of protein N of SARS-CoV Urbani / Binding of serum 62 to looped/cyclic peptides of protein N of SARS-CoV Urbani / Binding of serum London to looped/cyclic peptides of protein N of SARS-CoV Urbani / Binding of serum SARS-green to looped/cyclic peptides of protein N of SARS-CoV Urbani: unit not given here
# [3] = system: control sera (pooled serum of ten healthy LUMC hospital workers; commercial negative donor pooled serum from the Dutch bloodbank); assay type: binding, human; design: Binding of Control serum LUMC to linear peptides / Binding of Control serum Blood-bank to linear peptides / Binding of Control serum LUMC to looped peptides / Binding of Control Serum Blood-Bank to Looped peptides / Binding of Control serum LUMC to linear peptides of the protein M of SARS-CoV Urbani / Binding of Control serum Blood-bank to linear peptides of the protein M of SARS-CoV Urbani / Binding of Control serum LUMC to looped peptides of the protein M of SARS-CoV Urbani / Binding of Control Serum Blood-Bank to Looped peptides of the protein M of SARS-CoV Urbani: unit not given here
sequence,measurement,setting,value
ARCWYLHEGHQTAAF,Rabbit serum linear peptides,[1],0.3
same,Rabbit serum looped peptides,[1],0.6
AVIIRGHLRMAGHPL,Rabbit serum linear peptides,[1],0.3
same,Rabbit serum looped peptides,[1],0.6
DNASPASTVHATATI,Binding of a rabbit serum to linear peptides,[1],0.7
same,Binding of a rabbit serum to looped peptides,[1],0.3
EELKQLLEQWNLVIG,Rabbit serum linear peptides,[1],0.4
same,Rabbit serum looped peptides,[1],0.4
EGNSPFHPLADNKFA,Rabbit serum linear peptides,[1],0.7
same,Rabbit serum looped peptides,[1],0.7
FAGTHITMTTVYHIT,Binding of a rabbit serum to linear peptides,[1],0.6
same,Binding of a rabbit serum to looped peptides,[1],0.4
FICNLLLLFVTIYSH,Binding of serum 1a to linear peptides of protein X1 of SARS-CoV Urbani,[2],0.6
same,Binding of serum 1a to looped/cyclic peptide (PEPSCAN-ELISA),[2],0.5
same,Binding of serum 1b to linear peptides of protein X1 of SARS-CoV Urbani,[2],0.6
same,Binding of serum 1b to looped/cyclic peptide (PEPSCAN-ELISA),[2],0.3
same,Binding of serum 2 to linear peptides of protein X1 of SARS-CoV Urbani,[2],0.6
same,Binding of serum 2 to looped/cyclic peptide (PEPSCAN-ELISA),[2],0.4
same,Binding of serum 6 to linear peptides of protein X1 of SARS-CoV Urbani,[2],0.4
same,Binding of serum 6 to looped/cyclic peptide (PEPSCAN-ELISA),[2],0.2
same,Binding of serum 37 to linear peptides of protein X1 of SARS-CoV Urbani,[2],0.5
same,Binding of serum 37 to looped/cyclic peptide (PEPSCAN-ELISA),[2],0.5
same,Binding of serum 62 to linear peptides of protein X1 of SARS-CoV Urbani,[2],0.5
same,Binding of serum 62 to looped/cyclic peptide (PEPSCAN-ELISA),[2],0.5
same,Binding of serum London to linear peptides of protein X1 of SARS-CoV Urbani,[2],0.3
same,Binding of serum London to looped/cyclic peptide (PEPSCAN-ELISA),[2],0.2
same,Binding of serum SARS-green to linear peptides of protein X1 of SARS-CoV Urbani,[2],0.2
same,Binding of serum SARS-green to looped/cyclic peptide (PEPSCAN-ELISA),[2],0.3
same,Binding of serum SARS-yellow to linear peptides of protein X1 of SARS-CoV Urbani,[2],0.4
same,Binding of serum SARS-yellow to looped/cyclic peptide (PEPSCAN-ELISA),[2],0.5
same,Binding of a rabbit serum to linear peptides,[1],0.1
same,Binding of a rabbit serum to looped peptides,[1],0.5
GAVIIRGHLRMAGHP,Rabbit serum linear peptides,[1],0.8
same,Rabbit serum looped peptides,[1],0.5
GFQFIGNLLLLFVTI,Binding of a rabbit serum to linear peptides,[1],0.9
same,Binding of a rabbit serum to looped peptides,[1],0.5
GTITVEELKQLLEQW,Recognition of the peptide by the rabbit serum,[1],recognized
HLRMAGHPLGRCDIK,Rabbit serum linear peptides,[1],0.0
same,Rabbit serum looped peptides,[1],0.5
HRWHTMVQTCTPNVT,Binding of serum 1a to linear peptides of protein X5 of SARS-CoV Urbani,[2],0.7
same,Binding of serum 1a to looped/cyclic peptides of protein X5 of SARS-CoV Urbani,[2],0.6
same,Binding of serum 1b to linear peptides of protein X5 of SARS-CoV Urbani,[2],0.6
same,Binding of serum 1b to looped/cyclic peptides of protein X5 of SARS-CoV Urbani,[2],0.5
same,Binding of serum 2 to linear peptides of protein X5 of SARS-CoV Urbani,[2],0.8
same,Binding of serum 2 to looped/cyclic peptides of protein X5 of SARS-CoV Urbani,[2],0.5
same,Binding of serum 6 to linear peptides of protein X5 of SARS-CoV Urbani,[2],0.5
same,Binding of serum 6 to looped/cyclic peptides of protein X5 of SARS-CoV Urbani,[2],0.3
same,Binding of serum 37 to linear peptides of protein X5 of SARS-CoV Urbani,[2],0.7
same,Binding of serum 37 to looped/cyclic peptides of protein X5 of SARS-CoV Urbani,[2],0.3
same,Binding of serum 62 to linear peptides of protein X5 of SARS-CoV Urbani,[2],0.8
same,Binding of serum 62 to looped/cyclic peptides of protein X5 of SARS-CoV Urbani,[2],0.3
same,Binding of serum London to linear peptides of protein X5 of SARS-CoV Urbani,[2],0.7
same,Binding of serum London to looped/cyclic peptides of protein X5 of SARS-CoV Urbani,[2],0.1
same,Binding of serum SARS-green to linear peptides of protein X5 of SARS-CoV Urbani,[2],0.5
same,Binding of serum SARS-green to looped/cyclic peptides of protein X5 of SARS-CoV Urbani,[2],0.3
same,Binding of serum SARS-yellow to linear peptides of protein X5 of SARS-CoV Urbani,[2],0.5
same,Binding of serum SARS-yellow to looped/cyclic peptides of protein X5 of SARS-CoV Urbani,[2],0.2
same,Rabbit serum linear peptides,[1],0.7
same,Rabbit serum looped peptides,[1],0.3
IANACIVGLMWLSYF,Rabbit serum linear peptides,[1],0.1
same,Rabbit serum looped peptides,[1],0.0
IGAVIIRGHLRMAGH,Rabbit serum linear peptides,[1],0.3
same,Rabbit serum looped peptides,[1],0.8
IMRCWLCWKCKSKNP,Binding of serum 1a to looped/cyclic peptide (PEPSCAN-ELISA),[2],0.3
same,Binding of serum 1b to looped/cyclic peptide (PEPSCAN-ELISA),[2],0.1
same,Binding of serum 2 to looped/cyclic peptide (PEPSCAN-ELISA),[2],0.1
same,Binding of serum 6 to looped/cyclic peptide (PEPSCAN-ELISA),[2],0.2
same,Binding of serum 37 to looped/cyclic peptide (PEPSCAN-ELISA),[2],0.3
same,Binding of serum 62 to looped/cyclic peptide (PEPSCAN-ELISA),[2],0.3
same,Binding of serum London to looped/cyclic peptide (PEPSCAN-ELISA),[2],0.1
same,Binding of serum SARS-green to looped/cyclic peptide (PEPSCAN-ELISA),[2],0.1
same,Binding of serum SARS-yellow to looped/cyclic peptide (PEPSCAN-ELISA),[2],0.0
same,"Recognition of the peptide by sera of SARS-CoV infected individuals, and form (linear, looped/cyclic) in which it is recognized",[2],recognized in linear form
same,Binding of Control Serum Blood-Bank to Looped peptides,[3],0.4
same,Binding of Control serum Blood-bank to linear peptides,[3],0.5
same,Binding of Control serum LUMC to linear peptides,[3],0.5
same,Binding of Control serum LUMC to looped peptides,[3],0.2
IRGHLRMAGHPLGRC,Rabbit serum linear peptides,[1],1.2
same,Rabbit serum looped peptides,[1],0.4
ITVEELKQLLEQWNL,Recognition of the peptide by the rabbit serum,[1],recognized
KQLLEQWNLVIGFLP,Rabbit serum linear peptides,[1],0.0
same,Rabbit serum looped peptides,[1],0.1
LHEGHQTAAFRDVLV,Rabbit serum linear peptides,[1],0.5
same,Rabbit serum looped peptides,[1],0.7
RCWYLHEGHQTAAFR,Rabbit serum linear peptides,[1],0.9
same,Rabbit serum looped peptides,[1],0.4
RGHLRMAGHPLGRCD,Rabbit serum linear peptides,[1],0.0
same,Rabbit serum looped peptides,[1],0.3
SPFHPLADNKFALTC,Rabbit serum linear peptides,[1],0.4
same,Rabbit serum looped peptides,[1],0.5
TLGSITAQPVKIDNA,Binding of a rabbit serum to linear peptides,[1],0.8
same,Binding of a rabbit serum to looped peptides,[1],0.4
TVEELKQLLEQWNLV,Recognition of the peptide by the rabbit serum,[1],recognized
TVHATATIPLQASLP,Binding of a rabbit serum to linear peptides,[1],0.4
same,Binding of a rabbit serum to looped peptides,[1],0.5
TYEGNSPFHPLADNK,Rabbit serum linear peptides,[1],0.7
same,Rabbit serum looped peptides,[1],0.4
VHATATIPLQASLPF,Binding of a rabbit serum to linear peptides,[1],0.1
same,Binding of a rabbit serum to looped peptides,[1],0.6
VIGAVIIRGHLRMAG,Rabbit serum linear peptides,[1],1.5
same,Rabbit serum looped peptides,[1],0.6
VIIRGHLRMAGHPLG,Rabbit serum linear peptides,[1],0.4
same,Rabbit serum looped peptides,[1],0.6
VQQELYSPLFLIVAA,Binding of serum 1a to linear peptides of protein X4 of SARS-CoV Urbani,[2],0.7
same,Binding of serum 1a to looped/cyclic peptides of protein X4 of SARS-CoV Urbani,[2],0.8
same,Binding of serum 1b to linear peptides of protein X4 of SARS-CoV Urbani,[2],0.6
same,Binding of serum 1b to looped/cyclic peptides of protein X4 of SARS-CoV Urbani,[2],0.5
same,Binding of serum 2 to linear peptides of protein X4 of SARS-CoV Urbani,[2],0.6
same,Binding of serum 2 to looped/cyclic peptides of protein X4 of SARS-CoV Urbani,[2],0.7
same,Binding of serum 6 to linear peptides of protein X4 of SARS-CoV Urbani,[2],0.9
same,Binding of serum 6 to looped/cyclic peptides of protein X4 of SARS-CoV Urbani,[2],0.5
same,Binding of serum 37 to linear peptides of protein X4 of SARS-CoV Urbani,[2],0.7
same,Binding of serum 37 to looped/cyclic peptides of protein X4 of SARS-CoV Urbani,[2],0.7
same,Binding of serum 62 to linear peptides of protein X4 of SARS-CoV Urbani,[2],0.7
same,Binding of serum 62 to looped/cyclic peptides of protein X4 of SARS-CoV Urbani,[2],0.7
same,Binding of serum London to linear peptides of protein X4 of SARS-CoV Urbani,[2],0.9
same,Binding of serum London to looped/cyclic peptides of protein X4 of SARS-CoV Urbani,[2],0.3
same,Binding of serum SARS-green to linear peptides of protein X4 of SARS-CoV Urbani,[2],0.6
same,Binding of serum SARS-green to looped/cyclic peptides of protein X4 of SARS-CoV Urbani,[2],0.4
same,Binding of serum SARS-yellow to linear peptides of protein X4 of SARS-CoV Urbani,[2],0.5
same,Binding of serum SARS-yellow to looped/cyclic peptides of protein X4 of SARS-CoV Urbani,[2],0.8
same,"Recognition of the peptide by sera of SARS-CoV infected individuals, and form (linear, looped/cyclic) in which it is recognized",[2],recognized in looped/cyclic form
same,Binding of Control Serum Blood-Bank to Looped peptides,[3],0.7
same,Binding of Control serum Blood-bank to linear peptides,[3],0.6
same,Binding of Control serum LUMC to linear peptides,[3],0.5
same,Binding of Control serum LUMC to looped peptides,[3],0.6
VQQELYSPLFLTVAA,Rabbit serum linear peptides,[1],0.5
same,Rabbit serum looped peptides,[1],0.2
WYLHEGHQTAAFRDV,Rabbit serum linear peptides,[1],0.3
same,Rabbit serum looped peptides,[1],0.0
